In US9617310B2 (priority 2013, dated 2017):

Columns and labels:
Format in all cases: cell-based
[1] = system: NS3/4a protease inhibitor resistant variant R155K in genotype 1a transient HCV replicon; experiment: Transient-transfected HCV replicon, genotype 1a R155K; conditions: Hepatitis C virus, 72 h, read-out: EC50 1A R155K
[2] = system: genotype 1b stable HCV replicon (Con1) in Huh-7-derived cells; experiment: Stable subgenomic HCV replicon, genotype 1b, Renilla luciferase; conditions: Hepatitis C virus, stable replicon genotype 1b, 72 h, read-out: EC50 1B RLUC
Protocol: Antiviral potency (EC50) was determined in both stable subgenomic HCV replicon cell lines and transient-transfected HCV replicon cells. The term half maximal effective concentration (EC50) refers to the concentration of a drug which induces a response halfway between the baseline and maximum after the exposure time specified below.
Stable subgenomic HCV replicons for genotype 1a, 1b, 2a, 3a, and 4a were established in Huh-7-derived cells as described by Lohmann et al (Lohmann V, Korner F, Koch J, et al Replication of subgenomic hepatitis C virus RNAs in a hepatoma cell line. Science 1999; 285:119-3). Each stable cell line contains a bicistronic HCV replicon that encodes a humanized Renilla luciferase (hRLuc) reporter gene fused to a selectable neomycin-resistance gene, followed by an EMCV IRES and the NS3-NS5B coding region of HCV. […] Luciferase activity was measured as a marker for intracellular HCV replication levels.
The genotype 1a stable replicon was derived from the H77 HCV strain and contained adaptive mutations P1496L and S2204I. The genotype 1b stable replicon was derived from the Con1 HCV strain and contained adaptive mutations E1202G, T1280I, and K1846T. […] The genotype 3a stable replicon was derived from the S52 HCV strain and contained adaptive mutations P1121 L, A1198T and S2210I (equivalent to S2204I in genotype 1). The genotype 4a stable replicon was derived from the ED43 HCV strain and contained adaptive mutations Q1691R and S2204I. All replicon cell lines were propagated in Huh-7-derived cells and maintained in Dulbecco's modified Eagle's Medium (DMEM) supplemented with 10% fetal bovine serum (FBS) and 0.5 mg/ml G418.
To perform EC50 assays, cells from each HCV replicon were dispensed into 384-well plates. Compounds were dissolved in DMSO at a concentration of 10 mM and diluted in DMSO using an automated pipetting instrument. Three-fold serially diluted compounds were directly added to the cells using an automated instrument. DMSO was used as a negative (solvent; no inhibition) control, and a combination of three HCV inhibitors including a protease inhibitor; an NS5A inhibitor and a nucleoside inhibitor was used at concentrations >100×EC50 as a positive control (100% inhibition). Seventy-two hours later, cells were lysed and Renilla luciferase activity were quantified as recommended by the manufacturer (Promega-Madison, Wis.). Non-linear regression was performed to calculate […], values.

[3] = system: genotype 3a transient HCV replicon (S52) in Huh-7-derived cells; experiment: Transient-transfected HCV replicon, genotype 3a wild type; conditions: Hepatitis C virus; transient-transfected replicon genotype 3a wild type, 72 h; read-out: EC50 3A WT
[4] = system: NS3/4a protease inhibitor resistant variant D168A in genotype 1b transient HCV replicon; experiment: Transient-transfected HCV replicon, genotype 1b D168A; conditions: Hepatitis C virus, 72 h, read-out: EC50 1B D168A
[5] = system: genotype 1b wild-type transient HCV replicon in Huh-7-derived cells; experiment: Transient-transfected HCV replicon, genotype 1b wild type; conditions: Hepatitis C virus; transient-transfected replicon genotype 1b wild type, 72 h; read-out: EC50 1B WT
[6] = system: genotype 1a (H77) wild-type transient HCV replicon in Huh-7-derived cells; experiment: Transient-transfected HCV replicon, genotype 1a wild type; conditions: Hepatitis C virus; transient-transfected replicon genotype 1a wild type, 72 h; read-out: EC50 1A WT

SMILES | EC50 [1] [nM] | EC50 [2] [nM] | EC50 [3] [nM] | EC50 [4] [nM] | EC50 [5] [nM] | EC50 [6] [nM]
CC(C)(C)[C@@H]1NC(=O)O[C@@H]2C[C@@H]3C[C@@H]3[C@H]2CCCCCc2nc3ccc4ccccc4c3nc2OC2C[C@@H](C(=O)N[C@]3(C(=O)NS(=O)(=O)C4(C)CC4)C[C@H]3C(F)F)N(C2)C1=O (stereo partly drawn) [Example 22, (33R,35S,91S,93R,94R,95S,5S)-5-(tert-butyl)-N-((1R,2R)-2-(difluoromethyl)-1-(((1-methylcyclopropyl)sulfonyl)carbamoyl)cyclopropyl)-4,7-dioxo-2,8-dioxa-6-aza-1(2,3)-benzo[f]quinoxalina-3(3,1)-pyrrolidina-9(3,4)-bicyclo[3.1.0]hexanacyclotetradecaphane-35-carboxamide] | 2.7 | 5.06 | 5.5 | 18 | 2 | 1.7
CC(C)(C)[C@@H]1NC(=O)O[C@@H]2C[C@@H]3C[C@@H]3[C@H]2CCCCCc2nc3ccc(C#N)cc3nc2O[C@@H]2C[C@@H](C(=O)N[C@]3(C(=O)NS(=O)(=O)C4(C)CC4)C[C@H]3C(F)F)N(C2)C1=O [Example 23, (33R,35S,91S,93R,94R,95S,5S)-5-(tert-butyl)-17-cyano-N-((1R,2R)-2-(difluoromethyl)-1-(((1-methylcyclopropyl)sulfonyl)carbamoyl)cyclopropyl)-4,7-dioxo-2,8-dioxa-6-aza-1(2,3)-quinoxalina-3(3,1)-pyrrolidina-9(3,4)-bicyclo[3.1.0]hexanacyclotetradecaphane-35-carboxamide] | 2.3 | 2.93 | 9.5 | 11 | 0.9 | 1.2
CC(C)(C)[C@@H]1NC(=O)O[C@@H]2C[C@@H]3C[C@@H]3[C@H]2CCCCCn2c(nc3ccccc3c2=O)O[C@@H]2C[C@@H](C(=O)N[C@]3(C(=O)NS(=O)(=O)C4(C)CC4)C[C@H]3C(F)F)N(C2)C1=O [Example 24, (1aS,2aR,6S,9S,11R,24aR,24bS)-6-tert-butyl-N-[(1R,2R)-2-(difluoromethyl)-1-{[(1-methylcyclopropyl)sulfonyl]carbamoyl}cyclopropyl]-4,7,18-trioxo-1a,2,2a,4,5,6,7,10,11,20,21,22,23,24,24a,24b-hexadecahydro-1H,9H,18H-8,11-methanocyclopropa[4′,5′]cyclopenta[1′,2′:18,19][1,10,3,6,12]dioxatriazacyclonona decino[11,12-b]quinazoline-9-carboxamide] | 1.5 | 3.02 | 7.6 | 3.3 | 0.8 | 1.7
CC(C)(C)[C@@H]1NC(=O)O[C@@H]2C[C@@H]3C[C@@H]3[C@H]2CCCCCn2c(nc3cc(C#N)ccc3c2=O)O[C@@H]2C[C@@H](C(=O)N[C@]3(C(=O)NS(=O)(=O)C4(C)CC4)C[C@H]3C(F)F)N(C2)C1=O [Example 25, (1aS,2aR,6S,9S,11R,24aR,24bS)-6-tert-butyl-15-cyano-N-[(1R,2R)-2-(difluoromethyl)-1-{[(1-methylcyclopropyl)sulfonyl]carbamoyl}cyclopropyl]-4,7,18-trioxo-1a,2,2a,4,5,6,7,10,11,20,21,22,23,24,24a,24b-hexadecahydro-1H,9H,18H-8,11-methanocyclopropa[4′,5′]cyclopenta[1′,2′:18,19][1,10,3,6,12]dioxatriazacyclonona decino[11,12-b]quinazoline-9-carboxamide] | 2 | 2.72 | 7.5 | 4.4 | 0.7 | 1.8
COc1ccc2c(=O)n3c(nc2c1)O[C@@H]1C[C@@H](C(=O)N[C@]2(C(=O)NS(=O)(=O)C4(C)CC4)C[C@H]2C(F)F)N(C1)C(=O)[C@H](C(C)(C)C)NC(=O)O[C@@H]1C[C@@H]2C[C@@H]2[C@H]1CCCCC3 [Example 26, (1aS,2aR,6S,9S,11R,24aR,24bS)-6-tert-butyl-N-[(1R,2R)-2-(difluoromethyl)-1-{[(1-methylcyclopropyl)sulfonyl]carbamoyl}cyclopropyl]-15-methoxy-4,7,18-trioxo-1a,2,2a,4,5,6,7,10,11,20,21,22,23,24,24a,24b-hexadecahydro-1H,9H,18H-8,11-methanocyclopropa[4′,5′]cyclopenta[1′,2′:18,19][1,10,3,6,12]dioxatriazacyclonona decino[11,12-b]quinazoline-9-carboxamide] | 1 | 1.83 | 4.5 | 0.9 | 0.4 | 0.8
